From PubChem BioAssay (NCI)
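Compound exposure: 48 hours, 5 concentrations, 96-well plates. TGI: total growth inhibition.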

How the values were obtained:
Assay in all cases: NCI anticancer screen, dose series, 48 h
MDA-MB-231 breast = system: MDA-MB-231 breast
KM12 colon = system: KM12 colon
NCI/ADR-RES ovarian = system: NCI/ADR-RES ovarian
SK-MEL-5 melanoma = system: SK-MEL-5 melanoma
HT29 colon = system: HT29 colon
OVCAR-3 ovarian = system: OVCAR-3 ovarian
HS 578T breast = system: HS 578T breast
HL-60(TB) leukemia = system: HL-60(TB) leukemia
SW-620 colon = system: SW-620 colon
HCC-2998 colon = system: HCC-2998 colon
SK-MEL-2 melanoma = system: SK-MEL-2 melanoma
OVCAR-5 ovarian = system: OVCAR-5 ovarian
U251 CNS = system: U251 CNS
MALME-3M melanoma = system: MALME-3M melanoma
HCT-116 colon = system: HCT-116 colon
LOX IMVI melanoma = system: LOX IMVI melanoma
MOLT-4 leukemia = system: MOLT-4 leukemia
UO-31 renal = system: UO-31 renal
IGROV1 ovarian = system: IGROV1 ovarian
SN12C renal = system: SN12C renal
SK-OV-3 ovarian = system: SK-OV-3 ovarian
UACC-62 melanoma = system: UACC-62 melanoma
T-47D breast = system: T-47D breast
OVCAR-8 ovarian = system: OVCAR-8 ovarian
PC-3 prostate = system: PC-3 prostate
M14 melanoma = system: M14 melanoma
SNB-19 CNS = system: SNB-19 CNS
A498 renal = system: A498 renal
HOP-92 NSCLC = system: HOP-92 NSCLC
BT-549 breast = system: BT-549 breast
HCT-15 colon = system: HCT-15 colon
MDA-MB-435 = system: MDA-MB-435
MDA-N = system: MDA-N
COLO 205 colon = system: COLO 205 colon
A549 NSCLC = system: A549 NSCLC
TK-10 renal = system: TK-10 renal
ACHN renal = system: ACHN renal
RPMI-8226 leukemia = system: RPMI-8226 leukemia
OVCAR-4 ovarian = system: OVCAR-4 ovarian
EKVX NSCLC = system: EKVX NSCLC
SF-268 CNS = system: SF-268 CNS
NCI-H23 lung = system: NCI-H23 lung
NCI-H460 lung = system: NCI-H460 lung
UACC-257 melanoma = system: UACC-257 melanoma
CAKI-1 renal = system: CAKI-1 renal
NCI-H226 lung = system: NCI-H226 lung
SF-295 CNS = system: SF-295 CNS
MCF7 breast = system: MCF7 breast
SK-MEL-28 melanoma = system: SK-MEL-28 melanoma
K-562 leukemia = system: K-562 leukemia
786-0 renal = system: 786-0 renal
NCI-H522 lung = system: NCI-H522 lung
DU-145 prostate = system: DU-145 prostate
SF-539 CNS = system: SF-539 CNS
RXF 393 renal = system: RXF 393 renal
HOP-62 NSCLC = system: HOP-62 NSCLC
CCRF-CEM leukemia = system: CCRF-CEM leukemia
SNB-75 CNS = system: SNB-75 CNS

CC(=O)OCCn1c(Cc2ccc(C)cc2)nn(C(C)=O)c1=O
TGI (MDA-MB-231 breast): > 100 µM | TGI (KM12 colon): > 100 µM | TGI (NCI/ADR-RES ovarian): > 100 µM | TGI (SK-MEL-5 melanoma): > 100 µM | TGI (HT29 colon): > 100 µM | TGI (OVCAR-3 ovarian): > 100 µM | TGI (HS 578T breast): > 100 µM | TGI (HL-60(TB) leukemia): > 100 µM | TGI (SW-620 colon): > 100 µM | TGI (HCC-2998 colon): > 100 µM | TGI (SK-MEL-2 melanoma): > 100 µM | TGI (OVCAR-5 ovarian): > 100 µM | TGI (U251 CNS): > 100 µM | TGI (MALME-3M melanoma): > 100 µM | TGI (HCT-116 colon): > 100 µM | TGI (LOX IMVI melanoma): > 100 µM | TGI (MOLT-4 leukemia): > 100 µM | TGI (UO-31 renal): > 100 µM | TGI (IGROV1 ovarian): > 100 µM | TGI (SN12C renal): > 100 µM | TGI (SK-OV-3 ovarian): > 100 µM | TGI (UACC-62 melanoma): > 100 µM | TGI (T-47D breast): > 100 µM | TGI (OVCAR-8 ovarian): > 100 µM | TGI (PC-3 prostate): > 100 µM | TGI (M14 melanoma): > 100 µM | TGI (SNB-19 CNS): > 100 µM | TGI (A498 renal): > 100 µM | TGI (HOP-92 NSCLC): > 100 µM | TGI (BT-549 breast): > 100 µM | TGI (HCT-15 colon): > 100 µM | TGI (MDA-MB-435): > 100 µM | TGI (MDA-N): > 100 µM | TGI (COLO 205 colon): > 100 µM | TGI (A549 NSCLC): > 100 µM | TGI (TK-10 renal): > 100 µM | TGI (ACHN renal): > 100 µM | TGI (RPMI-8226 leukemia): > 100 µM | TGI (OVCAR-4 ovarian): > 100 µM | TGI (EKVX NSCLC): > 100 µM | TGI (SF-268 CNS): > 100 µM | TGI (NCI-H23 lung): > 100 µM | TGI (NCI-H460 lung): > 100 µM | TGI (UACC-257 melanoma): > 100 µM | TGI (CAKI-1 renal): > 100 µM | TGI (NCI-H226 lung): > 100 µM | TGI (SF-295 CNS): > 100 µM | TGI (MCF7 breast): > 100 µM | TGI (SK-MEL-28 melanoma): > 100 µM | TGI (K-562 leukemia): > 100 µM | TGI (786-0 renal): > 100 µM | TGI (NCI-H522 lung): > 100 µM | TGI (DU-145 prostate): > 100 µM | TGI (SF-539 CNS): > 100 µM

CCOC(=O)C1=C(C)NC(C)=C(C(=O)OCC)C1c1ccc(Cl)cc1
TGI (MDA-MB-231 breast): 33.6 µM | TGI (RXF 393 renal): 28.3 µM | TGI (KM12 colon): 40.4 µM | TGI (NCI/ADR-RES ovarian): 48.1 µM | TGI (HOP-62 NSCLC): 30.8 µM | TGI (SK-MEL-5 melanoma): 28.1 µM | TGI (HT29 colon): 24.8 µM | TGI (OVCAR-3 ovarian): 30.5 µM | TGI (CCRF-CEM leukemia): 28.3 µM | TGI (HS 578T breast): 42.2 µM | TGI (HL-60(TB) leukemia): 8.15 µM | TGI (SW-620 colon): 36.2 µM | TGI (HCC-2998 colon): 30.4 µM | TGI (SK-MEL-2 melanoma): 34.5 µM | TGI (OVCAR-5 ovarian): 27 µM | TGI (U251 CNS): 34.6 µM | TGI (MALME-3M melanoma): 34.6 µM | TGI (HCT-116 colon): 22 µM | TGI (LOX IMVI melanoma): 34.4 µM | TGI (MOLT-4 leukemia): 24.8 µM | TGI (UO-31 renal): 36.4 µM | TGI (IGROV1 ovarian): 30.9 µM | TGI (SN12C renal): 34.5 µM | TGI (SK-OV-3 ovarian): 31.7 µM | TGI (UACC-62 melanoma): 26.7 µM | TGI (T-47D breast): 35.2 µM | TGI (OVCAR-8 ovarian): 41.4 µM | TGI (PC-3 prostate): 33.9 µM | TGI (M14 melanoma): 31 µM | TGI (SNB-19 CNS): 31.3 µM | TGI (SNB-75 CNS): 33.5 µM | TGI (A498 renal): 31.2 µM | TGI (HOP-92 NSCLC): 24 µM | TGI (BT-549 breast): 32.7 µM | TGI (HCT-15 colon): 41.6 µM | TGI (MDA-MB-435): 28.9 µM | TGI (MDA-N): 26.9 µM | TGI (COLO 205 colon): 32.4 µM | TGI (A549 NSCLC): 34.3 µM | TGI (TK-10 renal): 29.2 µM | TGI (ACHN renal): 30.8 µM | TGI (RPMI-8226 leukemia): 52.8 µM | TGI (OVCAR-4 ovarian): 26.9 µM | TGI (EKVX NSCLC): 31.3 µM | TGI (SF-268 CNS): 34.6 µM | TGI (NCI-H23 lung): 32.1 µM | TGI (NCI-H460 lung): 19.9 µM | TGI (UACC-257 melanoma): 27.4 µM | TGI (CAKI-1 renal): 30.7 µM | TGI (SF-295 CNS): 26.3 µM | TGI (MCF7 breast): 38.7 µM | TGI (SK-MEL-28 melanoma): 37 µM | TGI (K-562 leukemia): 44.6 µM | TGI (786-0 renal): 26.5 µM | TGI (NCI-H522 lung): 32.2 µM | TGI (DU-145 prostate): 31.9 µM | TGI (SF-539 CNS): 37.3 µM
